The text below walks through data of patent publication US5948785A, “Heterocyclic amide compounds and pharmaceutical use of the same” (The Green Cross Corporation, priority 1995, dated 1999).

The experiment has as its target T1, human heart chymase (Homo sapiens, UniProt P23946).
T1 sequence (P23946 22-247): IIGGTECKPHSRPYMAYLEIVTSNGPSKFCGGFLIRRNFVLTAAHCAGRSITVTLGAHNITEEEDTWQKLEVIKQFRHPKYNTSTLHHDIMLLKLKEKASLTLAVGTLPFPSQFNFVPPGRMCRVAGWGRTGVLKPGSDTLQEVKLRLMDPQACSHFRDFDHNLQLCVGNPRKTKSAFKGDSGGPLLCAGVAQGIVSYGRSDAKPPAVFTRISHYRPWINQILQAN
Kind of experiment: Inhibitory activity on amidase activity of human heart chymase. Format: biochemical. The note with it: 5 nM chymase; succinyl-alanyl-alanyl-prolyl-phenylalanine-p-nitroanilide 2.5 mM; pH 9.0; Easson-Stedman plot; read-out: K^i (human heart chymase inhibitory activity). The procedure:
The effectiveness of the inhibitory activity of compound (I) of the present invention was evaluated based on the inhibitory activity on amidase activity of human heart chymase, which was determined as in the following.
The inhibitory activity was quantitatively determined through variation in fractional residual activity of the enzyme caused by the inventive compound in defined serial concentration (<×1, <×10, <×100-fold equivalents) relative to 5 nM chymase in the presence of synthetic substrate, succinyl-alanyl-alanyl-prolyl-phenylalanine-p-nitroanilide (final concentration 2.5 mM). The inhibitory effect was analyzed by least square regression of Easson-Stedman plot (Proc. Roy. Soc. B. 1936, 121, p. 141) utilizing bimolecular equilibrium reaction linearization formula. The inhibitory activity was evaluated by the apparent inhibitory constant (Kiapp) obtained by this analysis and inhibitory constant (Ki) calculated from final substrate concentration in the reaction mixture and Km values separately determined. The quantitative determination of initial rate of the enzyme reaction was spectrophotometrically detected in terms of an increased amount of p-nitroaniline at 405 nm produced by hydrolysis of the substrate. The chymase inhibitory activity of the compound of the present invention was calculated as ratio of residual activity in the presence of inhibitor relative to enzyme activity in the absence of inhibitor, and incorporation of the determination values was completed at a level less than initial rate guarantee absorbance at a concentration of the substrate used for the enzyme, after which analysis was performed.
The reaction mixture consisted of an Na2 B4 O7 (100 mM)-KH2 PO4 (50 mM) buffer (pH 9.0, 120 μl) containing 0.1% Triton-X100, the inventive compound dissolved in 20 μl of 10% dimethyl sulfoxide (DMSO), 10% bovine serum albumin dissolved in 20 μl of the same buffer, substrate dissolved in 20 μl of DMSO, and 20 μl of chymase, thus amounting to 200 μl in total.
Starting with the absorbance immediately after addition of the enzyme, increases in absorbance were recorded as a progressive curve taken precisely at equal time intervals.
From the above data, the difference between absorbances at completion of the reaction and immediately after addition was used to quantitatively determine the residual activity of the sample added with the inhibitor relative to a control wherein the inhibitor was not added. Alternatively, reaction rates of the control and the sample added with the inhibitor were calculated for certain time period (≥20 min) with successive shift (every 10 to 30 minutes) of the period, and the residual activity ratio was quantitatively determined and analyzed from the respective reaction rates averaged through the entire reaction time.
On to `Cc1ccc(-c2ncc(N)c(=O)n2CC(=O)NC(Cc2ccccc2)C(=O)C(F)(F)F)cc1` (stereo not drawn) [Example 6, 2-[5-amino-6-oxo-2-(p-tolyl)-1,6-dihydro-1-pyrimidyl]-N-(1-benzyl-3,3,3-trifluoro-2-oxopropyl)acetamide], for which the Ki is 7 µM.

Take `Nc1cnc(-c2ccc(F)cc2)n(CC(=O)NC(Cc2ccccc2)C(=O)C(F)(F)F)c1=O` (stereo not drawn) [Example 4, 2-[5-amino-2-(4-fluorophenyl)-6-oxo-1,6-dihydro-1-pyrimidyl]-N-(1-benzyl-3,3,3-trifluoro-2-oxopropyl)acetamide]: the Ki was 4.1 µM.

In the case of `Nc1cnc(-c2ccccc2)n(CC(=O)NC(Cc2ccccc2)C(=O)C(F)(F)F)c1=O` (stereo not drawn) [Example 2, 2-(5-amino-6-oxo-2-phenyl-1,6-dihydro-1-pyrimidyl)-N-(1-benzyl-3,3,3-trifluoro-2-oxopropyl)acetamide], the Ki stood at 7.2 µM.

Take `O=C(Cn1c(-c2ccc(F)cc2)ncc(NC(=O)OCc2ccccc2)c1=O)NC(Cc1ccccc1)C(=O)C(F)(F)F` (stereo not drawn) [Example 3, 2-[5-benzyloxycarbonylamino-2-(4-fluorophenyl)-6-oxo-1,6-dihydro-1-pyrimidyl]-N-(1-benzyl-3,3,3-trifluoro-2-oxopropyl)acetamide]: the Ki was 5.6 µM.

Turning to `Cc1cccc(-c2ncc(NC(=O)OCc3ccccc3)c(=O)n2CC(=O)NC(Cc2ccccc2)C(=O)C(F)(F)F)c1` (stereo not drawn) [Example 7, 2-[5-benzyloxycarbonylamino-6-oxo-2-(m-tolyl)-1,6-dihydro-1-pyrimidyl]-N-(1-benzyl-3,3,3-trifluoro-2-oxopropyl)-acetamide], the Ki is 4.8 µM.

In the case of `Cc1ccc(-c2ncc(NC(=O)OCc3ccccc3)c(=O)n2CC(=O)NC(Cc2ccccc2)C(=O)C(F)(F)F)cc1` (stereo not drawn) [Example 5, 2-[5-benzyloxycarbonylamino-6-oxo-2-(p-tolyl)-1,6-dihydro-1-pyrimidyl]-N-(1-benzyl-3,3,3-trifluoro-2-oxopropyl)-acetamide], the Ki stood at 8.7 µM.
